Assay results as given in patent US9309410B2, “Colorant compounds” (Xerox Corporation, priority 2013, dated 2016).

Experiment: Solubility testing in polyethylene wax (POLYWAX 655)
Type: physicochemical
Settings: 1 g Solvent Black 3 or 2 g distearyl derivative in 50 g POLYWAX 655; 120° C. oil bath, stirred 3 h, then 1 h without stirring
Excerpt: Solvent Black 3 (NEPTUN BLACK X60, BASF), of the formula
[drawing 36] molecular weight 456, and the distearyl derivative, a compound as disclosed herein, of the formula
[drawing 37] molecular weight 892, were compared for solubility in polyethylene wax, a predominant component in phase change inks. 1 g of the Solvent Black 3 and 2 g of the distearyl derivative (because its molecular weight was about twice that of Solvent Black 3) were each dissolved in 50 g portions of POLYWAX 655 (Baker Petrolite) in 100 mL beakers equipped with magnetic stir bars. The solutions were placed in 120° C. oil baths and allowed to stir for 3 h, followed by cessation of stirring for 1 h, after which the solutions were poured into aluminum tins.

Compound | solubility in polyethylene wax (solids on the bottom of the beaker)
CC1(C)Nc2cccc3c(/N=N/c4ccc(/N=N/c5ccccc5)c5ccccc45)ccc(c23)N1 [Solvent Black 3] | a substantial amount of the Solvent Black 3 appeared on the bottom of its beaker
CCCCCCCCCCCCCCCCCC1(CCCCCCCCCCCCCCCCC)Nc2cccc3c(/N=N/c4ccc(/N=N/c5ccccc5)c5ccccc45)ccc(c23)N1 [distearyl derivative] | almost no solids appeared on the bottom of the beaker
